Reference: patent US12582625B2, “Methods for treating neuroblastoma” (priority 2015, dated 2026)
Several values for one entry are separate records, joined by “and”; a condition that tells them apart may be missing. Identical values can stand only once.

Columns and labels:
tumor putrescine levels = conditions: eflornithine infusion, without suppressing peripheral platelet counts; cited from earlier work
[1] = NMTRC003 phase II prevention trial: adverse events; assay type: in vivo
Procedure: Dosing diaries were required to be completed for each cycle. […] The primary endpoint was Event Free Survival (EFS); secondary objectives included Overall Survival (OS) and safety. EFS was defined as the period from the first day of administration of study drug to the first occurrence of relapse or death, and OS was defined as the first day of administration of study drug until death; subjects without an event were censored at the time of last contact. Safety analysis was conducted on all subjects who received at least one dose of study drug, and included the frequency, grading, expectedness and attribution of all adverse events as well as dose interruptions, dose reductions, and treatment discontinuation.

[2] = NMTRC 002: DFMO serum pharmacokinetics in children with NB; conditions: for AUC(0-t) / Tmax / Cmax: human, serum
Procedure: Pharmacokinetic (PK) Analytical Method and Sample Collection. Patients were consented for all pharmacokinetic sampling and analysis. […] The extracted samples were injected into a liquid chromatograph equipped with an Atlantis Hilic Silica, 50×4.6 mm, 3 μm column. The mobile phase A was a mixture of Milli-Q type water with acetonitrile and ammonium acetate. The validated calibration range for this assay was from 50 to 100,000 ng/mL. […] Blood was not collected beyond 6 hours post dose as this trial was conducted on an outpatient basis, and this was judged to be an undue burden on patients.
Statistical Methods. […] Urinary polyamine levels were derived from duplicate measurements of individual samples. […] Fisher's Exact Test was used to assess the likelihood that increases in urinary polyamine levels were associated with disease progression. Friedman's test for repeated measures analysis of variance was used to assess changes in contents of individual urinary polyamines.
Samples were collected from patients prior to, and again at times 0.5, 1, 3, and 6 hours following drug administration on days 1 and 8 of the first cycle. […] Subsequent cycles commenced the day following the last day of the previous cycle.

[3] = human, in vivo, 27 4-week cycles

Compound: NCCCC(N)(C(=O)O)C(F)F (stereo not shown) [DFMO, 2,5-diamino-2-(difluoromethyl) pentanoic acid]
- decrease in tumor putrescine levels (tumor putrescine levels): 90%
- patients with grade 2-3 transaminitis (most common toxicity) ([1]; DFMO 500-1000 mg/m^2 BID): < 10%
- tolerability ([1]; DFMO 500-1000 mg/m^2 BID): well tolerated
- ALT elevation Grade 2, patients (%) ([1]; Stratum 1, n = 94): 3 (3%)
- ALT elevation Grade 3, patients (%) ([1]; Stratum 1, n = 94): 5 (5%)
- ALT elevation Grade 4, patients (%) ([1]; Stratum 1, n = 94): 0
- ALT elevation Grade 5, patients (%) ([1]; Stratum 1, n = 94): 0
- AST elevation Grade 2, patients (%) ([1]; Stratum 1, n = 94): 3 (3%)
- AST elevation Grade 3, patients (%) ([1]; Stratum 1, n = 94): 4 (4%)
- AST elevation Grade 4, patients (%) ([1]; Stratum 1, n = 94): 0
- AST elevation Grade 5, patients (%) ([1]; Stratum 1, n = 94): 0
- Agitation Grade 2, patients (%) ([1]; Stratum 1, n = 94): 1 (1%)
- Agitation Grade 3, patients (%) ([1]; Stratum 1, n = 94): 0
- Agitation Grade 4, patients (%) ([1]; Stratum 1, n = 94): 0
- Agitation Grade 5, patients (%) ([1]; Stratum 1, n = 94): 0
- Alopecia Grade 2, patients (%) ([1]; Stratum 1, n = 94): 1 (1%)
- Alopecia Grade 3, patients (%) ([1]; Stratum 1, n = 94): 0
- Alopecia Grade 4, patients (%) ([1]; Stratum 1, n = 94): 0
- Alopecia Grade 5, patients (%) ([1]; Stratum 1, n = 94): 0
- Anemia Grade 2, patients (%) ([1]; Stratum 1, n = 94): 4 (4%)
- Anemia Grade 3, patients (%) ([1]; Stratum 1, n = 94): 0
- Anemia Grade 4, patients (%) ([1]; Stratum 1, n = 94): 0
- Anemia Grade 5, patients (%) ([1]; Stratum 1, n = 94): 0
- Anorexia Grade 2, patients (%) ([1]; Stratum 1, n = 94): 1 (1%)
- Anorexia Grade 3, patients (%) ([1]; Stratum 1, n = 94): 0
- Anorexia Grade 4, patients (%) ([1]; Stratum 1, n = 94): 0
- Anorexia Grade 5, patients (%) ([1]; Stratum 1, n = 94): 0
- Diarrhea Grade 2, patients (%) ([1]; Stratum 1, n = 94): 5 (5%)
- Diarrhea Grade 3, patients (%) ([1]; Stratum 1, n = 94): 0
- Diarrhea Grade 4, patients (%) ([1]; Stratum 1, n = 94): 0
- Diarrhea Grade 5, patients (%) ([1]; Stratum 1, n = 94): 0
- Fever Grade 2, patients (%) ([1]; Stratum 1, n = 94): 2 (2%)
- Fever Grade 3, patients (%) ([1]; Stratum 1, n = 94): 0
- Fever Grade 4, patients (%) ([1]; Stratum 1, n = 94): 0
- Fever Grade 5, patients (%) ([1]; Stratum 1, n = 94): 0
- Hearing Loss Grade 2, patients (%) ([1]; Stratum 1, n = 94): 2 (2%)
- Hearing Loss Grade 3, patients (%) ([1]; Stratum 1, n = 94): 4 (4%)
- Hearing Loss Grade 4, patients (%) ([1]; Stratum 1, n = 94): 0
- Hearing Loss Grade 5, patients (%) ([1]; Stratum 1, n = 94): 0
- Hypoglycemia Grade 2, patients (%) ([1]; Stratum 1, n = 94): 0
- Hypoglycemia Grade 3, patients (%) ([1]; Stratum 1, n = 94): 0
- Hypoglycemia Grade 4, patients (%) ([1]; Stratum 1, n = 94): 1 (1%)
- Hypoglycemia Grade 5, patients (%) ([1]; Stratum 1, n = 94): 0
- Hypokalemia Grade 2, patients (%) ([1]; Stratum 1, n = 94): 0
- Hypokalemia Grade 3, patients (%) ([1]; Stratum 1, n = 94): 2 (2%)
- Hypokalemia Grade 4, patients (%) ([1]; Stratum 1, n = 94): 0
- Hypokalemia Grade 5, patients (%) ([1]; Stratum 1, n = 94): 0
- INR Elevated Grade 2, patients (%) ([1]; Stratum 1, n = 94): 1 (1%)
- INR Elevated Grade 3, patients (%) ([1]; Stratum 1, n = 94): 0
- INR Elevated Grade 4, patients (%) ([1]; Stratum 1, n = 94): 0
- INR Elevated Grade 5, patients (%) ([1]; Stratum 1, n = 94): 0
- Infection, Other Grade 5, patients (%) ([1]; Stratum 1, n = 94): 0
- Infection, middle ear Grade 5, patients (%) ([1]; Stratum 1, n = 94): 0
- Neutrophil count decrease Grade 2, patients (%) ([1]; Stratum 1, n = 94): 4 (4%)
- Neutrophil count decrease Grade 3, patients (%) ([1]; Stratum 1, n = 94): 3 (3%)
- Neutrophil count decrease Grade 4, patients (%) ([1]; Stratum 1, n = 94): 0
- Neutrophil count decrease Grade 5, patients (%) ([1]; Stratum 1, n = 94): 0
- Pain Grade 2, patients (%) ([1]; Stratum 1, n = 94): 2 (2%)
- Pain Grade 3, patients (%) ([1]; Stratum 1, n = 94): 0
- Pain Grade 4, patients (%) ([1]; Stratum 1, n = 94): 0
- Pain Grade 5, patients (%) ([1]; Stratum 1, n = 94): 0
- Platelet count decrease Grade 2, patients (%) ([1]; Stratum 1, n = 94): 2 (2%)
- Platelet count decrease Grade 3, patients (%) ([1]; Stratum 1, n = 94): 0
- Platelet count decrease Grade 4, patients (%) ([1]; Stratum 1, n = 94): 0
- Platelet count decrease Grade 5, patients (%) ([1]; Stratum 1, n = 94): 0
- Post Nasal Drip Grade 2, patients (%) ([1]; Stratum 1, n = 94): 1 (1%)
- Post Nasal Drip Grade 3, patients (%) ([1]; Stratum 1, n = 94): 0
- Post Nasal Drip Grade 4, patients (%) ([1]; Stratum 1, n = 94): 0
- Post Nasal Drip Grade 5, patients (%) ([1]; Stratum 1, n = 94): 0
- Rash Grade 2, patients (%) ([1]; Stratum 1, n = 94): 1 (1%)
- Rash Grade 3, patients (%) ([1]; Stratum 1, n = 94): 0
- Rash Grade 4, patients (%) ([1]; Stratum 1, n = 94): 0
- Rash Grade 5, patients (%) ([1]; Stratum 1, n = 94): 0
- Weight Gain Grade 2, patients (%) ([1]; Stratum 1, n = 94): 1 (1%)
- Weight Gain Grade 3, patients (%) ([1]; Stratum 1, n = 94): 0
- Weight Gain Grade 4, patients (%) ([1]; Stratum 1, n = 94): 0
- Weight Gain Grade 5, patients (%) ([1]; Stratum 1, n = 94): 0
- White blood cell decreased Grade 2, patients (%) ([1]; Stratum 1, n = 94): 2 (2%)
- White blood cell decreased Grade 3, patients (%) ([1]; Stratum 1, n = 94): 0
- White blood cell decreased Grade 4, patients (%) ([1]; Stratum 1, n = 94): 0
- White blood cell decreased Grade 5, patients (%) ([1]; Stratum 1, n = 94): 0
- patients with an increase in hearing loss ([1]; among patients with pre-existing hearing loss, all returned to baseline after holding medication): 4 patients
- Infection, Other Grade 2, patients (%) [1, 3]: 2 (2%)
- Infection, Other Grade 3, patients (%) [1, 3]: 0
- Infection, Other Grade 4, patients (%) [1, 3]: 0
- Infection, middle ear Grade 2, patients (%) [1, 3]: 2 (2%)
- Infection, middle ear Grade 3, patients (%) [1, 3]: 0
- Infection, middle ear Grade 4, patients (%) [1, 3]: 0
- population that did not report any related adverse events ([1]; over 2 years): 67%
- serious adverse events (SAE) ([1]; whole study): only one SAE involving hypoglycemia
- AUC0-6 hrs ([2]; 500 mg/m^2 PO BID, Cycle 1): 39.90 ± 24.16 (mcg/mL) × hrs
- AUC0-6 hrs ([2]; 750 mg/m^2 PO BID, Cycle 1): 47.36 ± 18.57 (mcg/mL) × hrs
- AUC0-6 hrs ([2]; 750 mg/m^2 PO BID, Cycle 2 (with etoposide)): 62.84 ± 39.47 (mcg/mL) × hrs
- AUC0-6 hrs ([2]; 1000 mg/m^2 PO BID, Cycle 1): 60.05 ± 34.53 (mcg/mL) × hrs
- AUC0-6 hrs ([2]; 1000 mg/m^2 PO BID, Cycle 2 (with etoposide)): 50.18 ± 32.57 (mcg/mL) × hrs
- AUC0-6 hrs ([2]; 1500 mg/m^2 PO BID, Cycle 1): 108.38 ± 53.23 (mcg/mL) × hrs
- AUC0-6 hrs ([2]; 1500 mg/m^2 PO BID, Cycle 2 (with etoposide)): 120.69 ± 31.22 (mcg/mL) × hrs
- biologically effective doses of DFMO (serum concentration range) ([2]; from clinical benefit in this study and adult cancer prevention studies): 50-150 μM
- AUC(0-t) ([2]; oral, 500 mg/m2): 39000 ng·h/mL
- AUC(0-t) ([2]; oral, 1500 mg/m2): 121000 ng·h/mL
- Tmax ([2]; oral, mean tmax, all dose groups): 2.5 to 3.75 h
- Cmax ([2]; po, 500 mg/m2, Cmax mean ± SD, 500 mg/m^2 PO BID, Cycle 1): 9540 ± 5360 ng/mL
- Tmax ([2]; po, 500 mg/m2, tmax, 500 mg/m^2 PO BID, Cycle 1): 3.75 ± 1.39 h
- Cmax ([2]; po, 750 mg/m2, Cmax mean ± SD, 750 mg/m^2 PO BID, Cycle 1): 11900 ± 5220 ng/mL
- Cmax ([2]; po, 750 mg/m2, Cmax mean ± SD, 750 mg/m^2 PO BID, Cycle 2 (with etoposide)): 14200 ± 7920 ng/mL
- Tmax ([2]; po, 750 mg/m2, tmax, 750 mg/m^2 PO BID, Cycle 1): 3.6 ± 1.26 h
- Tmax ([2]; po, 750 mg/m2, tmax, 750 mg/m^2 PO BID, Cycle 2 (with etoposide)): 2.6 ± 0.89 h
- Cmax ([2]; po, 1000 mg/m2, Cmax mean ± SD, 1000 mg/m^2 PO BID, Cycle 1): 14700 ± 9070 ng/mL
- Cmax ([2]; po, 1000 mg/m2, Cmax mean ± SD, 1000 mg/m^2 PO BID, Cycle 2 (with etoposide)): 14300 ± 6180 ng/mL
- Tmax ([2]; po, 1000 mg/m2, tmax, 1000 mg/m^2 PO BID, Cycle 1): 3.17 ± 1.6 h
- Tmax ([2]; po, 1000 mg/m2, tmax, 1000 mg/m^2 PO BID, Cycle 2 (with etoposide)): 3 h
- Cmax ([2]; po, 1500 mg/m2, Cmax mean ± SD, 1500 mg/m^2 PO BID, Cycle 1): 29000 ± 15000 ng/mL
- Cmax ([2]; po, 1500 mg/m2, Cmax mean ± SD, 1500 mg/m^2 PO BID, Cycle 2 (with etoposide)): 30700 ± 8180 ng/mL
- Tmax ([2]; po, 1500 mg/m2, tmax, 1500 mg/m^2 PO BID, Cycle 1): 2.88 ± 1.45 h
- Tmax ([2]; po, 1500 mg/m2, tmax, 1500 mg/m^2 PO BID, Cycle 2 (with etoposide)): 2.5 ± 0.9 h
- mean Cmax and AUC versus oral dose ([2]; in vivo, po): increased in a linear fashion
- Overall average serum DFMO concentration ([2]; patients receiving 500 mg/m^2): 9.54 μg/mL and 52.24 μM
- Overall average serum DFMO concentration ([2]; patients receiving 1500 mg/m^2): 30.71 μg/mL and 168.10 μM
